Measurements: US8119589B2, “Modulation of CD4+ T cell responses by a tick saliva protein, Salp15 and polypeptides derived therefrom” (University of North Carolina at Charlotte, priority 2004, dated 2012)
Where a SMILES comes first, the peptide text is derived from it.

Legend:
sCD4 = target: T1, sCD4 (Homo sapiens, UniProt P01730); test: Microtiter binding of sCD4-HRP to plate-bound Salp15 and synthetic peptides
T1 construct: the extracellular four domains of CD4 (sCD4); purchased Research Diagnostics Inc., Flanders, N.J., U.S.A
Description: Purified sCD4 was coated overnight at 4° C. at the indicated concentrations in 0.1M sodium carbonate buffer (pH 9.5) in 96 well plates. Equimolar amounts of lysozyme were used as a non-specific control. The wells were washed, blocked with 10% FCS/PBS for 1 hr at R.T., and incubated with Salp15 (0.4 μM) for 2 hr at 37° C. Salp15 binding was detected by incubation with horseradish peroxidase (HRP)-conjugated anti-His antibody for 1 hr followed by microwell peroxidase substrate (KPL). The reaction was stopped by adding TMB stop solution (KPL). Chemically synthesized overlapping peptides of Salp15 were purchased from GenScript Corporation (Piscataway, N.J., U.S.A). To study the binding of Salp15 and peptides to sCD4, Salp15 (5 μg) and different peptides (0.5 μg) were coated. The wells were washed and blocked prior to incubation with sCD4-HRP (Research Diagnostics Inc., Flanders, N.J., U.S.A.). For competition assays, indicated concentrations of Salp15 or P11 were added to sCD4-HRP and incubated with plate bound P11 (0.1 μg). To estimate the effect of dithiothreitol (DTT) treatment of Salp15 on binding to sCD4, 0.5 μM Salp15 was treated with 10 mM DTT overnight and immobilized onto microtiter plate followed by blocking and incubation with sCD4-HRP.
Dissociation constants were determined by non-linear curve fit. The results are expressed as the mean±S.E. of 3 to 5 individual experiments.

CD4+ T cells [1] = test: Lipid raft redistribution (CTB594 staining, receptor capping) in activated CD4+ T cells; type: cell-based, mouse; conditions: pretreatment with peptide 0.2 μg/mL; anti-CD3/CD28 20 min
Description: (§1) Naïve CD4+ T cells from C3H/HeN, Balb/c, and B10.BR mice were purified as previously described (Anguita et al., 2002). CD4+ T cells were preincubated in Click's modified Bruff's Medium (Sigma Chemical Co., St. Louis, Mo., U.S.A.) for 10 minutes at 37° C. with and without Salp15 (50 μg/mL) and stimulated for 20 min or the indicated times at 37° C. with 10 μg/mL of anti-CD3ε, 1 μg/mL of anti-CD28, and 10 μg/mL of anti-armenian and syrian hamster IgG (BD Biosciences Pharmingen, San Jose, Calif., U.S.A.). Jurkat (E6-1) cells were stimulated using 5 μg/mL of OKT3 mAb (eBioscience, San Diego, Calif., U.S.A.) and 1 μg/mL of anti-human CD28 cross linked with 5 μg/mL anti-mouse IgG for the indicated times.
For the visualization of lipid rafts, phospho-tyrosine, and cytoskeleton reorganization, CD4^+, CD8^+ or Jurkat cells were cytospun for 10 minutes at 1000 RPM onto positively charged microslides (Fisher Scientific, Hampton, N.H., U.S.A.). The cells were fixed with 3.7% paraformaldehyde (Sigma Chemical Co.) for 15 minutes and stained with CTB594 (Molecular Probes, Eugene, Oreg., U.S.A.), AlexaFluor488 labeled phalloidin (Molecular Probes) or (1:50) biotin-conjugated anti-p-Tyr (PY99) followed by Streptavidin-AlexaFluor594 (1:100, Molecular Probes). For p-LAT and p-PLCγ1 staining, fixed cells were treated with PBS containing 0.1% Triton-X 100 and 100 mM glycine for 15 min at room temperature and stained using rabbit p-LAT (Tyr^191) or rabbit anti-p-PLCγ1 (Tyr^783) probed with anti-rabbit IgG488 (Molecular Probes).
For receptor capping studies, mouse primary B and CD11^+ cells were purified by positive selection using biotin anti-mouse CD45R/B220 clone RA3-6B2 and biotin anti-mouse CD11b clone M1/70 (BD Biosciences Pharmingen) respectively, followed by incubation with magnetic microbeads. The cells were analyzed for receptor capping using 25 μg/mL anti-mouse IgM and 25 μg/mL anti-mouse CD16/CD32 respectively, cross-linked with 25 μg/mL of anti-rat IgG594 for 10 min in the presence or absence of 50 μg/mL of Salp15. […]

CD4+ T cells [2] = test: IL-2 production (capture ELISA) by CD4+ T cells activated with plate bound anti-CD3 and soluble anti-CD28; type: cell-based, mouse; conditions: for Inhibition of CD4+ T cell IL-2 production: pretreatment with peptide, 24 hr of activation
Description: FIG. 6D is a graph showing purified CD4^+ T cells were activated in vitro with plate bound anti-CD3 and soluble anti-CD28 in the absence or presence of Salp15 (50 μg/mL), P11, or P8. The supernatants were analyzed at 24 hr of activation for IL-2 levels by capture ELISA.
as §1

Compound | Binding of overlapping synthetic peptides to sCD4 (sCD4; peptides 0.5 μg coated, sCD4-HRP) | Lipid rafts clustering in response to T cell activation (CD4+ T cells [1]) | Activity for modulating naïve CD4+ T cell activation among the tested polypeptide fragments (CD4+ T cells [2]) | Inhibition of CD4+ T cell IL-2 production (CD4+ T cells [2]) | Saturable binding to sCD4 with increasing concentrations (sCD4)
CC[C@H](C)[C@H](NC(=O)[C@H](Cc1c[nH]cn1)NC(=O)CNC(=O)[C@@H](NC(=O)[C@H](CS)NC(=O)[C@H](CCCCN)NC(=O)[C@H](CC(N)=O)NC(=O)[C@H](CCCCN)NC(=O)[C@H](CCC(=O)O)NC(=O)[C@H](C)NC(=O)[C@H](CS)NC(=O)[C@@H](NC(=O)[C@H](CCC(N)=O)NC(=O)CNC(=O)[C@H](CC(N)=O)NC(=O)[C@@H]1CCCN1C(=O)CN)[C@@H](C)O)C(C)C)C(=O)N1CCC[C@H]1C(=O)NCC(=O)N[C@@H](CS)C(=O)O [Peptide P11] (H-GPNGQTCAEKNKCVGHIPGC-OH; N-terminus and C-terminus assumed) | showed binding | reduction | highest activity | dose dependent inhibition | –
EKNKCVGHIPGC (listed as Ixodes scapularis) [Peptide P11-2] | – | – | highest activity | – | saturable binding
NCTFLCKHGNDVNVTLNLPE (listed as Ixodes scapularis) [Peptide P8] | – | did not show any effect | – | did not exert any inhibition | no binding
